We go through 10 molecules from ChEMBL document CHEMBL1154969, “LXXLL peptide mimetics as inhibitors of the interaction of vitamin D receptor with coactivators” (Bioorg Med Chem Lett, 2010).

Assay [1] concerns the target T1, Vitamin D3 receptor (Homo sapiens, UniProt P11473).
T1 sequence (P11473 whole entry): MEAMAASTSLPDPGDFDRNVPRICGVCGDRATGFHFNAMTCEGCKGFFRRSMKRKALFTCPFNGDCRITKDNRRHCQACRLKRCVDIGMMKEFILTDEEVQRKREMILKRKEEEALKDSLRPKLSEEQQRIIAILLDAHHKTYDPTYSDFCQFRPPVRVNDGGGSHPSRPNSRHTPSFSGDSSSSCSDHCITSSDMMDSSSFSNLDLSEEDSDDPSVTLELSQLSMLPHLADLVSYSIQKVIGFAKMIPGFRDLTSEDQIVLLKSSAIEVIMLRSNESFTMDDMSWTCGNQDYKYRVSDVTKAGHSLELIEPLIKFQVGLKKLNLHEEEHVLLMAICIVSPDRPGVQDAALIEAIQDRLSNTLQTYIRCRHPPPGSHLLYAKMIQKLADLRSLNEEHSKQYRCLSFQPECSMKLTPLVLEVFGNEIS
Nature of the assay: Displacement of 1,25-dihydroxyvitamin D3 from GST-tagged VDR ligand binding domain assessed as inhibition of interaction with coactivator proteins by TR-FRET assay.

A further assay addresses T2, Androgen receptor (Homo sapiens, UniProt P10275).
T2 sequence (P10275 whole entry): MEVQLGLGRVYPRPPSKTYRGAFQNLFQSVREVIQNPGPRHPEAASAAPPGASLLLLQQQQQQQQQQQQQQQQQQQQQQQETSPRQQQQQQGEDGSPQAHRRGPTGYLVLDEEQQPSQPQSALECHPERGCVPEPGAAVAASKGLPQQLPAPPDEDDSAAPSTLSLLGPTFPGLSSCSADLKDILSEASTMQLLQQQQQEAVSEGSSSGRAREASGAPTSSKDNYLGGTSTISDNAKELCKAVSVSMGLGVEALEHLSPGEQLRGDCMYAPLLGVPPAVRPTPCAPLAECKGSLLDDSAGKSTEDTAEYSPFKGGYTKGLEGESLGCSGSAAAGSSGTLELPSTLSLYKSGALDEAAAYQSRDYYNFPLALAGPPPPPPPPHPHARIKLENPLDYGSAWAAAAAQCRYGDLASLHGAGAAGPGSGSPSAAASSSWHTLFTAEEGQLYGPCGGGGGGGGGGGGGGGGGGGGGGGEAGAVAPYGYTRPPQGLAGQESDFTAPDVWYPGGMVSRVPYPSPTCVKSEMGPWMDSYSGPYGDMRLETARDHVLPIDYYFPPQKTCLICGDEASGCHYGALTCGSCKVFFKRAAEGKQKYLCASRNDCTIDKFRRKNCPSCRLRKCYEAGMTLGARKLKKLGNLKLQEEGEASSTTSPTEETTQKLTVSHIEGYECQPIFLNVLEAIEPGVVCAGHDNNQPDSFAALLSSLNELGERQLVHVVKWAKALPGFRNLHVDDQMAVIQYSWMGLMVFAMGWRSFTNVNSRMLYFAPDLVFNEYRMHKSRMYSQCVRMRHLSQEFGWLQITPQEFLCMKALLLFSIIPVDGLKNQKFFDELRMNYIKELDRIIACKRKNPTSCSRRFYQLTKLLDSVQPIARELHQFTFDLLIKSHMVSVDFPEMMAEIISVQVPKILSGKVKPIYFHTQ
Nature of the assay: Inhibition of AR.

Assay [2] addresses T3, Estrogen receptor (Homo sapiens, UniProt P03372).
T3 sequence (P03372 whole entry): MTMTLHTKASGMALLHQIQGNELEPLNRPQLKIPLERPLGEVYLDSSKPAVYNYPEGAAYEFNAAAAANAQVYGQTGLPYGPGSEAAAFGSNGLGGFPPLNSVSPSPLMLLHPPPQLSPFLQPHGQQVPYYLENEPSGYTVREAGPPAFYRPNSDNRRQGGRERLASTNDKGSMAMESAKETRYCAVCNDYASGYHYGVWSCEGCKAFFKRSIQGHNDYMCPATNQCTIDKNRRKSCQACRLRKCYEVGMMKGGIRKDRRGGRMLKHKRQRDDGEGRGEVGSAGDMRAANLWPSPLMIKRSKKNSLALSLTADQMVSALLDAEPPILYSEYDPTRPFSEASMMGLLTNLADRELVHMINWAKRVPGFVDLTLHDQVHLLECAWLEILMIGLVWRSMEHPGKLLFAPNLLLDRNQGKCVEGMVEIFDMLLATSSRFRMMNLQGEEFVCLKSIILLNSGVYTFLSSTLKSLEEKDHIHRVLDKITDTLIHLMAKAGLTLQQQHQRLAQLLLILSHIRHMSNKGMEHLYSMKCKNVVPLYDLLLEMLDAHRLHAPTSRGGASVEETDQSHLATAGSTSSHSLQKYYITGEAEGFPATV
Nature of the assay: Antagonist activity at human recombinant ERalpha LBD expressed in HEK293 cells assessed as inhibition of 0.3 nM estradiol-induced transcriptional activation after 16 to 18 hrs by GAL4-dependent luciferase reporter gene assay. Type of assay: functional, cell-based.

Assay [3] concerns the target T4, Vitamin D3 receptor (Homo sapiens) (UniProt P11473).
T4 sequence (whole entry): T1 sequence (P11473 whole entry)
Nature of the assay: Antagonist activity at human recombinant VDR LBD expressed in HEK293 cells assessed as inhibition of 300 nM 1,25-(OH)2D3-induced transcriptional activation at 30 uM after 16 to 18 hrs by GAL4-dependent luciferase reporter gene assay. Type of assay: functional, cell-based. Background: In a reporter assay the amount or activity of a reporter protein is the signal.

In assay [4] the target is T5, Estrogen receptor (Homo sapiens) (UniProt P03372).
T5 sequence (whole entry): T3 sequence (P03372 whole entry)
The conditions noted are these: HEK293, 30 uM.
Description: Antagonist activity at human recombinant ERalpha LBD expressed in HEK293 cells assessed as inhibition of 0.3 nM estradiol-induced transcriptional activation at 30 uM after 16 to 18 hrs by GAL4-dependent luciferase reporter gene assay

In assay [5] the target is T6, Estrogen receptor beta (Homo sapiens, UniProt Q92731). Nature of the assay: Antagonist activity at human recombinant ERbeta LBD expressed in HEK293 cells assessed as inhibition of 0.3 nM estradiol-induced transcriptional activation after 16 to 18 hrs by GAL4-dependent luciferase reporter gene assay. The class given is functional, cell-based.
T6 sequence (Q92731 whole entry, the tested form may be a part): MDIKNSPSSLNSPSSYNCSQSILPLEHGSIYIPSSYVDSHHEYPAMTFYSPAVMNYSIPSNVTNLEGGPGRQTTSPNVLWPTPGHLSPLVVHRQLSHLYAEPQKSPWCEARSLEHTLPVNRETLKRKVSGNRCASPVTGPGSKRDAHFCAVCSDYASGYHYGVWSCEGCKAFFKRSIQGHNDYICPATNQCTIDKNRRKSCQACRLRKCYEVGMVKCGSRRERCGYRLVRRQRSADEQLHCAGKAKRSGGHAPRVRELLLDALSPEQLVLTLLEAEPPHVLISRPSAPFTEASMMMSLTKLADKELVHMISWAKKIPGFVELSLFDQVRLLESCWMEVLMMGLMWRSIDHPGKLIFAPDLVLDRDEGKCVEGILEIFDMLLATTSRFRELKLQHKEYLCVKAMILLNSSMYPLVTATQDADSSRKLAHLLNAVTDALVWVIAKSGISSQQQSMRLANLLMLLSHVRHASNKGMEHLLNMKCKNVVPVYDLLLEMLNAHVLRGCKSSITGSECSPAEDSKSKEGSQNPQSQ
Assay [6] addresses T4, Vitamin D3 receptor (Homo sapiens). Nature of the assay: Displacement of 1,25-dihydroxyvitamin D3 from GST-tagged VDR ligand binding domain assessed as inhibition of interaction with coactivator proteins at 30 uM by TR-FRET assay. A general note: In TR-FRET formats the signal depends on donor and acceptor labels being close together.
Assay [7] has the same target. Nature of the assay: Antagonist activity at human recombinant VDR LBD expressed in HEK293 cells assessed as inhibition of 3 nM 1,25-(OH)2D3-induced transcriptional activation at 30 uM after 16 to 18 hrs by GAL4-dependent luciferase reporter gene assay. The class given is functional, cell-based.
Assay [8] concerns the target T1, Vitamin D3 receptor. Nature of the assay: (§1) Antagonist activity at human recombinant VDR LBD expressed in HEK293 cells assessed as inhibition of 300 nM 1,25-(OH)2D3-induced transcriptional activation after 16 to 18 hrs by GAL4-dependent luciferase reporter gene assay. The class given is functional, cell-based.
Assay [9] concerns the target T1, Vitamin D3 receptor. Nature of the assay: Antagonist activity at human recombinant VDR LBD expressed in HEK293 cells assessed as inhibition of 3 nM 1,25-(OH)2D3-induced transcriptional activation after 16 to 18 hrs by GAL4-dependent luciferase reporter gene assay. Type of assay: functional, cell-based.
The target in assay [10] is T6, Estrogen receptor beta. Nature of the assay: Antagonist activity at human recombinant ERbeta LBD expressed in HEK293 cells assessed as inhibition of 0.3 nM estradiol-induced transcriptional activation at 30 uM after 16 to 18 hrs by GAL4-dependent luciferase reporter gene assay. The class given is functional, cell-based.
For assay [11], the target named is T4, Vitamin D3 receptor (Homo sapiens). Nature of the assay: Displacement of 1,25-dihydroxyvitamin D3 from GST-tagged VDR ligand binding domain assessed as inhibition of interaction with coactivator proteins at 10 uM by TR-FRET assay.
The target is the same in assay [12]. Nature of the assay: Antagonist activity at human recombinant VDR LBD expressed in HEK293 cells assessed as inhibition of 3 nM 1,25-(OH)2D3-induced transcriptional activation at 10 uM after 16 to 18 hrs by GAL4-dependent luciferase reporter gene assay. Type of assay: functional, cell-based.
Assay [13] has the same target. Nature of the assay: Antagonist activity at human recombinant VDR LBD expressed in HEK293 cells assessed as inhibition of 300 nM 1,25-(OH)2D3-induced transcriptional activation at 10 uM after 16 to 18 hrs by GAL4-dependent luciferase reporter gene assay. Type of assay: functional, cell-based.
For assay [14] the target is unchanged. Described as §1. Type of assay: functional, cell-based.
Assay [15] deals with T3, Estrogen receptor. Nature of the assay: Inhibition of ER.

Usually IC50 stands for the midpoint of a concentration-inhibition curve. Regarding `CC(C)CCN1Cc2cc(CC(C)C)c(NCCNC(=O)OC(C)(C)C)cc2N[C@@H](CC(C)C)C1=O`, the IC50 at Vitamin D3 receptor [1] was 13 µM.
The Ki is the equilibrium dissociation constant of an inhibitor or competing ligand from its target. High values mean lower affinity, low ones higher affinity. In turn, `CC(C)CNc1cc(CCc2cccc3ccccc23)nc(NCc2cccc3ccccc23)n1` came in with a Ki at Androgen receptor of 1.5 µM.
Usually inhibition stands for the share of the control response that was lost under treatment. Take `CC(C)=Cc1cc2c(cc1N)N[C@@H](CC(C)C)C(=O)N(CCC(C)C)C2`: the IC50 on Estrogen receptor [2] was greater than 30 µM; at Estrogen receptor beta [5], 22 µM; at Vitamin D3 receptor [1], 20 µM; on Vitamin D3 receptor [8] it was 23 µM; on Vitamin D3 receptor [9], 17 µM. The inhibition was determined as 59% in [3]; 8% in assay [4]; 76% in assay [6]; 68% in [7]; 56% at Estrogen receptor beta [10].
For the molecule `C=C1/C(=C\C=C2/CCC[C@]3(C)[C@@H]([C@H](C)C[C@H]4C[C@@](C)(O)C(=O)N4CCc4ccccc4)CC[C@@H]23)C[C@@H](O)C[C@@H]1O`, the inhibition turned out to be 87% in assay [11], 98% in [12] and 66% in assay [13]. Moreover, the IC50 was 3.3 µM on Vitamin D3 receptor [8] and 0.22 µM on Vitamin D3 receptor [9].
In the case of `CC(C)CCN1Cc2cc(CC(C)C)c(N)cc2N[C@@H](CC(C)C)C1=O`, the IC50 on Estrogen receptor [2] was greater than 30 µM; on Estrogen receptor beta [5], greater than 30 µM; at Vitamin D3 receptor [1], 30 µM; on Vitamin D3 receptor [8], 30 µM; at Vitamin D3 receptor [9] it was 30 µM. For the same molecule, the inhibition in assay [3] came out at 53%; in [6], 48%; in assay [7], 47%; in assay [14] it was 8%; on Estrogen receptor beta [10] it was 18%.
For the molecule `CC(C)CCN1Cc2cc(CC(C)C)c(NC(=N)N)cc2N[C@@H](CC(C)C)C1=O`, the inhibition in [6] was 46%. Further, the IC50 at Vitamin D3 receptor [1] was greater than 30 µM.
For `CC(=O)NCCNc1cc2c(cc1CC(C)C)CN(CCC(C)C)C(=O)[C@H](CC(C)C)N2`, the inhibition in [6] was 43%. Also, the IC50 on Vitamin D3 receptor [1] is greater than 30 µM.
On Estrogen receptor [15], `CC(C)CNc1cc(CC(C)C)nc(NCC(C)C)n1` yielded a Ki of 29 µM.
As for `CC(C)Cc1cc(O)c(=O)n(Cc2ccc3ccccc3c2)c1-c1ccnc(Cc2ccccc2)c1`, at Estrogen receptor [15], the affinity, expressed as Ki, was 4.2 µM.
On to `CC(C)CCN1Cc2cc(CC(C)C)c(NCCN)cc2N[C@@H](CC(C)C)C1=O`, for which the IC50 on Vitamin D3 receptor [1] is 28 µM.
